In patent US20230039858A1, “COMPOSITIONS AND METHODS RELATED TO MOLECULAR CONJUGATION” (IntoCell, Inc., priority 2019, published 2023):

Assays:
[1] = Plasma stability in human plasma, HPLC; assay type: in vitro ADME; settings: 300 μM, 37° C., up to 7 days
Experimental: (§1) Compound N-Ac-Cys-AMA-10 and methyl phenyl sulfone (used as a standard material) were dissolved in DMSO to make a concentration of 30 mM. Then, each of human plasma (Biochemed 752PR—SC-PMG) and mouse plasma (Biochemed 029-APSC-MP) were mixed with the N-Ac-Cys-AMA-10 and MPS to make a final concentration of N-Ac-Cys-AMA-10 and methyl phenyl sulfone 300 μM. The resulting plasma mixtures were incubated in a water bath at 37° C. Aliquots were taken before the reaction and on 1 day, 2 days, 4 days, and 7 days after the reaction, wherein each aliquot was 200 μL. To complete the reaction, a two-fold volume of acetonitrile was added, followed by brief vortexing, and centrifugation for plasma protein precipitation. Each supernatant obtained after centrifugation was collected and analyzed by HPLC.

[2] = Plasma stability in mouse plasma, HPLC; assay type: in vitro ADME; settings: 300 μM, 37° C., up to 7 days
Experimental: as §1

[3] = Relative reaction rate with N-Ac-cysteine (LC/MS); assay type: physicochemical; settings: with N-acetyl-L-cysteine in PBS buffer/DMSO, 1 hour, room temperature; relative to Reference A = 1
Experimental: To a homogeneous solutions of ‘reference A’, PyrMPS-1, and mMPS-4 (10 stock solution 10 mmol) in PBS buffer (870 μL) and DMSO (90 μL) was added N-acetyl-L-cysteine (10 stock solution 10 mmol) and stirred for 1 hour at room temperature. The resulting samples were checked for reaction rate using LC/MS.

Row | Structure (SMILES) | stability in human plasma [1] | stability in mouse plasma [2] | Relative reaction rate [3]
1 | C#CCOCCOCCOCCNC(=O)c1cc(C(=O)CC(SC[C@H](NC(C)=O)C(=O)O)C(N)=O)cc(C(=O)NCCOCCOCCOCC#C)c1 (some centres unmarked) [N-Ac-Cys-AMA-10] | high stability | high stability | –
2 | COC(=O)c1cc(C(=O)CCS(=O)(=O)c2ccc(C)cc2)cc(C(=O)NCCOCCOCCOCCOCCOCCN=[N+]=[N-])c1 [mMPS-4] | – | – | Increase 7 folds
3 | Cc1ccc(S(=O)(=O)CCC(=O)c2cncc(C(=O)NCCOCCOCCOCCOCCOCCN=[N+]=[N-])c2)cc1 [pyrMSP-1] | – | – | Increase 11.5 folds
4 | Cc1ccc(S(=O)(=O)CCC(=O)c2ccc(C(=O)NCCOCCOCCOCCOCCOCCN=[N+]=[N-])cc2)cc1 [Reference A, reference compound] | – | – | 1 folds
